Numbered stars: 1 amine (or outer) side, 2 acyl side, 3 side chain; on linkers, the order of the positions; unused ones are H or OH. Square brackets hold non-standard residues; d marks the D form. Side chains are listed from the residue outwards. Peptide text beside a SMILES is read from it. * marks the point of attachment. C18 diacid = O=C(O)CCCCCCCCCCCCCCCCC(=O)*; γGlu = O=C(O)[C@H](CCC(=O)[*:2])N[*:1]; Ac4c = NC1(C(=O)O)CCC1; AEEA = NCCOCCOCC(=O)O; Aib = CC(C)(N)C(=O)O
Experiments:
[1] = Chemical stability assessment by RP-UPLC; assay type: physicochemical; conditions: 333 μM, 8 mM phosphate buffer pH 7.3, 37° C. vs 5° C.
Method in brief: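 Purity loss = (purity after 14 days at 5° C. minus that at 37° C.) relative to the 5° C. value, purity being main-peak area % by RP-UPLC with UV at 215 nm. Samples were 333 μM in 8 mM phosphate, pH 7.3; gradient adjusted for outlying retention times.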

human glucagon receptor = target: T1, human glucagon receptor (Homo sapiens, UniProt P47871); test: Glucagon receptor binding, 125I-glucagon displacement SPA on isolated membranes; conditions: displacement of 125I-glucagon from membranes; read-out: IC50 GlucR
T1 construct: expressed in transfected cells; host or cells: BHK cells (parent BHK570, CRE luciferase clone BHK/KZ10-20-48), clone pLJ6'-4-25
Method in brief: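 Displacement IC50 derived by non-linear regression of SPA counts after 2 h, 25 °C incubation of compound with [125I]-glucagon (480 pM solution, 25 μl) and membranes of hGCGR-transfected BHK cells. Buffer was HEPES pH 7.4 with ovalbumin; serum albumin was held at 0.001% max or 0.2% final.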

T1 sequence (P47871 26-477): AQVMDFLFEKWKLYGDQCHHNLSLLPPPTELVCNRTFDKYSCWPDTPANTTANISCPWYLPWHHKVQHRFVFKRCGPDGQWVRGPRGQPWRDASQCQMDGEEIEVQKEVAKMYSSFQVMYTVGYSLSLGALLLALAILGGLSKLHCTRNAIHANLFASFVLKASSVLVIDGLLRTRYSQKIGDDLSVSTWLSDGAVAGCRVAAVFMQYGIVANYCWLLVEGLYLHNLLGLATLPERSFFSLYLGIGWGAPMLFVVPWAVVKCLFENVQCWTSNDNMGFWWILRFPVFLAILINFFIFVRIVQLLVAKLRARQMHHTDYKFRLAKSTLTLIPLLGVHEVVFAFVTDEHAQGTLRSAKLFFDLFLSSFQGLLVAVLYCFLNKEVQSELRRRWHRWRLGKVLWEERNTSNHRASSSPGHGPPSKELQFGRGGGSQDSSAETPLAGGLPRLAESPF

Row | Purity loss; 14 days at 37° C. [1] [%] | IC50 (human glucagon receptor) [nM] | Structure (SMILES)
1 | 3 | 1.4 | CC(C)C[C@H](NC(=O)[C@H](Cc1c[nH]c2ccccc12)NC(=O)[C@H](CCC(N)=O)NC(=O)[C@@H](NC(=O)[C@H](Cc1ccccc1)NC(=O)[C@H](CCC(=O)O)NC(=O)[C@H](CCCNC(=N)N)NC(=O)[C@H](C)NC(=O)[C@H](CCCNC(=N)N)NC(=O)[C@H](CCCNC(=N)N)NC(=O)C(C)(C)NC(=O)[C@H](CC(=O)O)NC(=O)[C@H](CC(C)C)NC(=O)[C@H](Cc1ccc(O)cc1)NC(=O)[C@H](CCCCN)NC(=O)[C@H](CO)NC(=O)[C@H](CC(C)C)NC(=O)[C@H](CC(=O)O)NC(=O)[C@H](CO)NC(=O)[C@@H](NC(=O)[C@H](Cc1ccccc1)NC(=O)[C@@H](NC(=O)CNC(=O)[C@H](CCC(N)=O)NC(=O)C(C)(C)NC(=O)[C@@H](N)Cc1c[nH]cn1)[C@@H](C)O)[C@@H](C)O)C(C)C)C(=O)N[C@@H](CC(C)C)C(=O)N[C@@H](CCCCNC(=O)CC[C@H](NC(=O)CC[C@H](NC(=O)COCCOCCNC(=O)COCCOCCNC(=O)CC[C@H](NC(=O)CCCCCCCCCCCCCCCCC(=O)O)C(=O)O)C(=O)O)C(=O)O)C(=O)N[C@H](C(N)=O)[C@@H](C)O [Example 51, N^ε28-[(4S)-4-carboxy-4-[[(4S)-4-carboxy-4-[[2-[2-[2-[[2-[2-[2-[[(4S)-4-carboxy-4-(17-carboxyheptadecanoylamino)butanoyl]amino]ethoxy]ethoxy]acetyl]amino]ethoxy]ethoxy]acetyl]amino]butanoyl]amino]butanoyl]-[Aib2,Leu10,Aib16,Arg20,Glu21,Leu27,Lys28]-Glucagon amide] (H-H[Aib]QGTFTSDLSKYLD[Aib]RRAREFVQWLLK([γGlu-γGlu-AEEA-AEEA-γGlu-C18 diacid])T-NH2; N-terminus assumed)
2 | 2 | 1.7 | CC(C)C[C@H](NC(=O)[C@H](CC(=O)O)NC(=O)[C@H](CC(C)C)NC(=O)[C@H](Cc1ccc(O)cc1)NC(=O)[C@H](CCCCN)NC(=O)[C@H](CO)NC(=O)[C@H](CC(C)C)NC(=O)[C@H](CC(=O)O)NC(=O)[C@H](CO)NC(=O)[C@@H](NC(=O)[C@H](Cc1ccccc1)NC(=O)[C@@H](NC(=O)CNC(=O)[C@H](CCC(N)=O)NC(=O)C1(NC(=O)[C@@H](N)Cc2c[nH]cn2)CCC1)[C@@H](C)O)[C@@H](C)O)C(=O)N[C@@H](CCCNC(=N)N)C(=O)N[C@@H](CCCNC(=N)N)C(=O)N[C@@H](C)C(=O)N[C@@H](CCCNC(=N)N)C(=O)N[C@@H](CCC(=O)O)C(=O)N[C@@H](Cc1ccccc1)C(=O)N[C@H](C(=O)N[C@@H](CCC(N)=O)C(=O)N[C@@H](Cc1c[nH]c2ccccc12)C(=O)N[C@@H](CC(C)C)C(=O)N[C@@H](CC(C)C)C(=O)N[C@@H](CCCCNC(=O)CC[C@H](NC(=O)CC[C@H](NC(=O)COCCOCCNC(=O)COCCOCCNC(=O)CC[C@H](NC(=O)CC[C@H](NC(=O)CCCCCCCCCCCCCCCCC(=O)O)C(=O)O)C(=O)O)C(=O)O)C(=O)O)C(=O)N[C@H](C(N)=O)[C@@H](C)O)C(C)C [Example 49, N^ε28-[(4S)-4-carboxy-4-[[(4S)-4-carboxy-4-[[2-[2-[2-[[2-[2-[2-[[(4S)-4-carboxy-4-[[(4S)-4-carboxy-4-(17-carboxyheptadecanoylamino)butanoyl]amino]butanoyl]amino]ethoxy]ethoxy]acetyl]amino]ethoxy]ethoxy]acetyl]amino]butanoyl]amino]butanoyl]-[Acb2,Leu10,Leu16,Arg20,Glu21,Leu27,Lys28]-Glucagon amide] (H-H[Ac4c]QGTFTSDLSKYLDLRRAREFVQWLLK([γGlu-γGlu-AEEA-AEEA-γGlu-γGlu-C18 diacid])T-NH2; N-terminus assumed)
3 | 1 | 1.7 | CC(C)C[C@H](NC(=O)[C@H](Cc1ccc(O)cc1)NC(=O)[C@H](CCCCN)NC(=O)[C@H](CO)NC(=O)[C@H](CC(C)C)NC(=O)[C@H](CC(=O)O)NC(=O)[C@H](CO)NC(=O)[C@@H](NC(=O)[C@H](Cc1ccccc1)NC(=O)[C@@H](NC(=O)CNC(=O)[C@H](CCC(N)=O)NC(=O)C(C)(C)NC(=O)[C@@H](N)Cc1c[nH]cn1)[C@@H](C)O)[C@@H](C)O)C(=O)N[C@@H](CCC(=O)O)C(=O)N[C@@H](CO)C(=O)N[C@@H](CCCCN)C(=O)N[C@@H](CCCNC(=N)N)C(=O)N[C@@H](C)C(=O)N[C@@H](CCCNC(=N)N)C(=O)N[C@@H](CCC(=O)O)C(=O)N[C@@H](Cc1ccccc1)C(=O)N[C@H](C(=O)N[C@@H](CCC(N)=O)C(=O)N[C@@H](Cc1c[nH]c2ccccc12)C(=O)N[C@@H](CC(C)C)C(=O)N[C@@H](CC(C)C)C(=O)N[C@@H](CCCCNC(=O)CC[C@H](NC(=O)CC[C@H](NC(=O)[C@H](CO)NC(=O)[C@H](CCC(=O)O)NC(=O)[C@H](CO)NC(=O)CC[C@H](NC(=O)CC[C@H](NC(=O)CCCCCCCCCCCCCCCCC(=O)O)C(=O)O)C(=O)O)C(=O)O)C(=O)O)C(=O)N[C@H](C(N)=O)[C@@H](C)O)C(C)C [Example 54, N^ε28-[(4S)-4-carboxy-4-[[(4S)-4-carboxy-4-[[(2S)-2-[[(2S)-4-carboxy-2-[[(2S)-2-[[(4S)-4-carboxy-4-[[(4S)-4-carboxy-4-(17-carboxyheptadecanoylamino)butanoyl]amino]butanoyl]amino]-3-hydroxypropanoyl]amino]butanoyl]amino]-3-hydroxypropanoyl]amino]butanoyl]amino]butanoyl]-[Aib2,Leu10,Glu15,Lys17,Arg20,Glu21,Leu27,Lys28]-Glucagon amide] (H-H[Aib]QGTFTSDLSKYLESKRAREFVQWLLK([γGlu-γGlu-Ser-Glu-Ser-γGlu-γGlu-C18 diacid])T-NH2; N-terminus assumed)
4 | 9 | 6.7 | CC(C)C[C@H](NC(=O)[C@H](CC(C)C)NC(=O)[C@H](Cc1c[nH]c2ccccc12)NC(=O)[C@H](CCC(N)=O)NC(=O)[C@@H](NC(=O)[C@H](Cc1ccccc1)NC(=O)[C@H](CCC(=O)O)NC(=O)[C@H](CCC(N)=O)NC(=O)[C@H](C)NC(=O)[C@H](C)NC(=O)[C@H](CCCCN)NC(=O)[C@H](CO)NC(=O)[C@H](CC(=O)O)NC(=O)[C@H](CC(C)C)NC(=O)[C@H](Cc1ccc(O)cc1)NC(=O)[C@H](CCCCN)NC(=O)[C@H](CO)NC(=O)[C@H](CC(C)C)NC(=O)[C@H](CC(=O)O)NC(=O)[C@H](CO)NC(=O)[C@@H](NC(=O)[C@H](Cc1ccccc1)NC(=O)[C@@H](NC(=O)CNC(=O)[C@H](CCC(N)=O)NC(=O)C(C)(C)NC(=O)[C@@H](N)Cc1c[nH]cn1)[C@@H](C)O)[C@@H](C)O)C(C)C)C(=O)N[C@@H](CC(N)=O)C(=O)N[C@@H](CCCCNC(=O)CC[C@H](NC(=O)CC[C@H](NC(=O)COCCOCCNC(=O)COCCOCCNC(=O)CC[C@H](NC(=O)CCCCCCCCCCCCCCCCC(=O)O)C(=O)O)C(=O)O)C(=O)O)C(N)=O [Example 8, N^ε29-[(4S)-4-carboxy-4-[[(4S)-4-carboxy-4-[[2-[2-[2-[[2-[2-[2-[[(4S)-4-carboxy-4-(17-carboxyheptadecanoylamino)butanoyl]amino]ethoxy]ethoxy]acetyl]amino]ethoxy]ethoxy]acetyl]amino]butanoyl]amino]butanoyl]-[Aib2,Leu10,Lys17,Ala18,Glu21,Leu27,Lys29]-Glucagon amide] (H-H[Aib]QGTFTSDLSKYLDSKAAQEFVQWLLNK([γGlu-γGlu-AEEA-AEEA-γGlu-C18 diacid])-NH2; N-terminus assumed)
